Test results reported in patent US10065972B2, “Bicyclic or tricyclic heterocyclic compound” (MITSUBISHI TANABE PHARMA CORPORATION, priority 2014, dated 2018).

The compounds below were run against human recombinant KAT-II (Homo sapiens (Human), UniProt Q8N5Z0) (assay: KAT-II inhibitory test). Settings: 3.0 μmol/L kynurenine, 37° C., 1 hr, pH 8.0; kynurenic acid quantified by HPLC.
Type: biochemical
Summary of the method: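 E. coli-expressed His/MBP-tagged human KAT-II (2.0 ng/μL) incubated with 3.0 μmol/L kynurenine and 10 μmol/L pyridoxal phosphate in Tris-acetate pH 8.0, 1 hr at 37 °C. Reaction stopped with TCA. Kynurenic acid quantified by reversed-phase HPLC with fluorescence detection (ex 354/em 460 nm), duplicate at each concentration.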

Sequence of human recombinant KAT-II (Q8N5Z0 30-425): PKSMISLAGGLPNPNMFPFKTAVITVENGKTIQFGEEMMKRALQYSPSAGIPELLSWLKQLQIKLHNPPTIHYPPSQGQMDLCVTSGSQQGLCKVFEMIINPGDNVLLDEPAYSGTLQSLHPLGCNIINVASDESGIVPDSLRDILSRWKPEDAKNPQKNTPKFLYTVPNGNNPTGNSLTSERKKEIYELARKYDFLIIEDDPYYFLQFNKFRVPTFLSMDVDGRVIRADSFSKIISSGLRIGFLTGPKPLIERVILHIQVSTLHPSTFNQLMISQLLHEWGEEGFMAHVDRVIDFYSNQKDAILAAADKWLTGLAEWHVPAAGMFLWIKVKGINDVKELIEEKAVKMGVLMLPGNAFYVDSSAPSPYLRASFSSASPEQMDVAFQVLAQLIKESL

Row | SMILES | IC50 [nM]
1 | Cn1c(C(F)(F)F)nc2sc(N3CCC[C@@H]3C(=O)NCc3ccccc3)nc2c1=O [Example 190, (R)-N-benzyl-1-(6-methyl-7-oxo-5-trifluoromethyl-6,7-dihydro-[1,3]thiazolo[5,4-d]pyrimidin-2-yl)pyrrolidine-2-carboxamide] | 26
2 | Cn1c(C(F)(F)F)cc2sc(N3CCC[C@@H]3C(=O)NCc3ccccc3)nc2c1=O [Example 631, (R)-N-benzyl-1-(5-methyl-4-oxo-6-trifluoromethyl-4,5-dihydro[1,3]thiazolo[4,5-c]pyridin-2-yl)pyrrolidine-2-carboxamide] | 55
3 | Cn1c(C(F)(F)c2ccccn2)nc2sc(N3CCC[C@@H]3C(=O)NCc3ccccc3)nc2c1=O [Example 273, (R)-N-benzyl-1-{5-[difluoro(pyridin-2-yl)methyl]-6-methyl-7-oxo-6,7-dihydro[1,3]thiazolo[5,4-d]pyrimidin-2-yl}pyrrolidine-2-carboxamide] | 5.6
4 | Cc1noc(-c2nc3sc(N4CCC[C@@H]4C(=O)NCc4ccccc4)nc3c(=O)[nH]2)n1 [Example 585, (R)-N-benzyl-1-[5-(3-methyl-[1,2,4]oxadiazol-5-yl)-7-oxo-6,7-dihydro[1,3]thiazolo[5,4-d]pyrimidin-2-yl]pyrrolidine-2-carboxamide] | 12
5 | CC(C)(O)c1nc2sc(N3CCC[C@@H]3C(=O)NCc3ccccc3)nc2c(=O)[nH]1 [Example 606, (R)-N-benzyl-1-[5-(2-hydroxypropan-2-yl)-7-oxo-6,7-dihydro[1,3]thiazolo[5,4-d]pyrimidin-2-yl]pyrrolidine-2-carboxamide] | 7.6
6 | CNCCn1c(C(F)(F)F)nc2sc(N3CCC[C@@H]3C(=O)NCc3ccccc3)nc2c1=O [Example 363, (R)-N-benzyl-1-[6-(2-methylaminoethyl)-7-oxo-5-trifluoromethyl-6,7-dihydro[1,3]thiazolo[5,4-d]pyrimidin-2-yl]pyrrolidine-2-carboxamide] | 120

Further lines, results first:

Row | IC50 [nM] | SMILES
7 | 110 | CC(C)(F)c1nc2sc(N3CCCN3C(=O)Oc3ccccc3)nc2c(=O)[nH]1 [Example 131, 2-[5-(2-fluoropropan-2-yl)-7-oxo-6,7-dihydro[1,3]thiazolo[5,4-d]pyrimidin-2-yl]pyrazolidine-1-carboxylic acid phenyl ester]
8 | 560 | CCc1nc2sc(N3CCC[C@@H]3C(=O)NCc3cc(C)ccn3)nn2c(=O)c1F [Example 664, (R)-1-(7-ethyl-6-fluoro-5-oxo-5H-[1,3,4]thiadiazolo[3,2-a]pyrimidin-2-yl)-N-[(4-methylpyridin-2-yl)methyl]pyrrolidine-2-carboxamide]
9 | 230 | CCc1c(C)nc2sc([C@H]3CCCN3C(=O)Oc3ccccc3)nn2c1=O [Example 148, (R)-2-(6-ethyl-7-methyl-5-oxo-5H-[1,3,4]thiadiazolo[3,2-a]pyrimidin-2-yl)pyrrolidine-1-carboxylic acid phenyl ester]
